Consider 1 compound from publication PMC8536830 (Current Biology, 2021).

Molecules are shown by their SMILES.

One experiment has as its target LGC-54 (Caenorhabditis elegans, UniProt O17041). Briefly: Two-electrode voltage clamp, agonist-evoked currents in Xenopus oocytes expressing LGC-54. The class given is cell-based, C. elegans. The text has this:
We aimed to deorphanize C. elegans LGICs without known ligands, focusing on 5 genes in the putative monoamine-gated group: lgc-50; lgc-51; lgc-52; lgc-54; and lgc-56 (previously named ggr-3). Using heterologous overexpression in Xenopus oocytes and two-electrode voltage clamp recordings, we measured channel activity evoked by application of 11 monoamines and other neurotransmitters.
(§1) Defolliculated Xenopus laevis oocytes were obtained from EcoCyte Bioscience (Dortmund, Germany) and maintained in ND96 (in mM: 96 NaCl, 1 MgCl2, 5 HEPES, 1.8 CaCl2, 2 KCl) solution at 16°C for 3-5 days.
5'-capped cRNA was synthesized in vitro using the T3 mMessage mMachine transcription kit according to manufacturer’s protocol (Thermo Fischer Scientific, CA, USA). RNA was then purified using the GeneJET RNA purification kit (Thermo Fischer Scientific, CA, USA) prior to cRNA injection. Defolliculated Xenopus oocytes were placed individually into 96 well plates and injected with 50nL of 500ng/μL RNA using the Roboinject system (Multi Channel Systems GmbH, Reutlingen, Germany). When two constructs were injected the total RNA concentration remained 500ng/μL, with a 1:1 ratio of the components. Injected oocytes were incubated at 16°C in ND96 until the day of recording, typically between 3-5 days post injection.
Two-electrode voltage clamp recordings were carried out using the Robocyte2 recording system or a manual TEVC set up, using an OC-725D amplifier (Multi Channel Systems, Reutlingen, Germany) and paired with a custom-made recording chamber and agar bridges from reference and bath electrodes. Glass electrodes were pulled on a P-1000 Micropipette Puller (Sutter, Ca, USA) with a resistance ranging from 0.7-2 MΩ, pipettes, containing AgCl wires, were backfilled with a 3 M KCl solution for manual recordings and 1.5M KCl and 1 M acetic acid for Robocyte2 recordings. Oocytes were clamped at −60mV unless stated otherwise. Continuous recordings were taken during application of agonists and antagonists at 500 Hz. Data was recorded using WinWCP or RoboCyte2 control software, manual data was filtered at 10 Hz.
Dose response curves were calculated from the peak current during a 10 s agonist stimulation in ND96 solution, with a 60 s ND96 wash in between doses. Data was gathered over at least two occasions, using different batches of oocytes. Normalized dose response data was fitted to a nonlinear curve using a four parameters variable slope and the EC50 and Hill slope was calculated. All further recordings were carried out with the agonist at its EC50 concentration unless stated otherwise. Ion selectivity was determined using a voltage ramp protocol of 20mV/s ranging from −80mV to +60mV in the presence or absence of the primary agonist in three different solutions: ND96, NMDG (Na^+ free) and Na Gluconate (low Cl^-) solutions. Normalized ramp curves were fitted to a linear regression line and the x intercept was compared between solutions to calculate an average Erev from 4-5 oocytes. Antagonist dose response curves were calculated from the peak current during a 10 s agonist + antagonist stimulation in ND96 solution, with the agonist concentration remaining constant. Repeated agonist stimulus protocols were carried out by measuring the peak current during a 10 s agonist stimulation at three wash intervals, 10 s, 30 s and 60 s. Kinetic measurements were calculated from a 60 s agonist perfusion. Python scripts for TEVC analysis can be found at on GitHub at hiris25/TEVC-analysis-scripts and on Zenodo https://doi.org/10.5281/zenodo.5095181.
Dose response and antagonist response curves were generated using custom-built python scripts (key resources table), which combined data from multiple recordings and normalized data by calculating I/Imax for each oocyte.

Another experiment deals with T1, LGC-50:MOD-1(327-458) (Caenorhabditis elegans, UniProt P41849).
T1 construct: Plasmid: KSM: lgc-50:mod-1(327-458) (cDNA); MOD-1 residues 327-458 (M3/4 loop); expressed in transfected cells; host or cells: Xenopus laevis oocytes injected with cRNA (plasmid pIH125)
T1 sequence (P41849 with tags, fused parts or gaps): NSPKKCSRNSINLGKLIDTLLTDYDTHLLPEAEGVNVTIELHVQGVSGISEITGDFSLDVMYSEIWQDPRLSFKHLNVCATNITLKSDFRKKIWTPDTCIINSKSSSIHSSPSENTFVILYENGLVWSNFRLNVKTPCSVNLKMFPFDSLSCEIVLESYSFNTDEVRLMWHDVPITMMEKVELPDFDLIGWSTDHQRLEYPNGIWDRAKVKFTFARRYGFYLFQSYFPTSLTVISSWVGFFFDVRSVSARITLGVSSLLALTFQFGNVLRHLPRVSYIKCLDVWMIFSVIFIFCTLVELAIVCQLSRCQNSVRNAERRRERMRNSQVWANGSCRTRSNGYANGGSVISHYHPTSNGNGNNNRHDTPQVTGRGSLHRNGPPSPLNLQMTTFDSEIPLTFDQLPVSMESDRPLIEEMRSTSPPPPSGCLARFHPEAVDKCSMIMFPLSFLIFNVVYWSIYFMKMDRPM
Briefly: Two-electrode voltage clamp, 5-HT evoked dose response, LGC-50 chimera with MOD-1 M3/4 loop. The class given is cell-based, C. elegans. Particulars: Xenopus oocytes, TEVC; LGC-50 with M3/4 loop of MOD-1. Here is the method:
To investigate, we exchanged the intracellular M3/4 loop of LGC-50 with the equivalent region of MOD-1 (LGC-50:MOD-1 327–458) and expressed the chimera in oocytes. […] The EC50 of the chimeric channels matched that of the recipient channel (Figures 5C and 5D).
as §1
5'-capped cRNA was synthesized in vitro using the T3 mMessage mMachine transcription kit according to manufacturer’s protocol (Thermo Fischer Scientific, CA, USA). […]
Two-electrode voltage clamp recordings were carried out using the Robocyte2 recording system or a manual TEVC set up, using an OC-725D amplifier (Multi Channel Systems, Reutlingen, Germany) and paired with a custom-made recording chamber and agar bridges from reference and bath electrodes. […] Data was recorded using WinWCP or RoboCyte2 control software, manual data was filtered at 10 Hz.
Dose response curves were calculated from the peak current during a 10 s agonist stimulation in ND96 solution, with a 60 s ND96 wash in between doses. […] Normalized dose response data was fitted to a nonlinear curve using a four parameters variable slope and the EC50 and Hill slope was calculated. […] Kinetic measurements were calculated from a 60 s agonist perfusion. […]
In general terms: Two-electrode voltage clamp is typically applied to oocytes expressing channels or transporters.

LGC-54, sequence (O17041 entry or part of it): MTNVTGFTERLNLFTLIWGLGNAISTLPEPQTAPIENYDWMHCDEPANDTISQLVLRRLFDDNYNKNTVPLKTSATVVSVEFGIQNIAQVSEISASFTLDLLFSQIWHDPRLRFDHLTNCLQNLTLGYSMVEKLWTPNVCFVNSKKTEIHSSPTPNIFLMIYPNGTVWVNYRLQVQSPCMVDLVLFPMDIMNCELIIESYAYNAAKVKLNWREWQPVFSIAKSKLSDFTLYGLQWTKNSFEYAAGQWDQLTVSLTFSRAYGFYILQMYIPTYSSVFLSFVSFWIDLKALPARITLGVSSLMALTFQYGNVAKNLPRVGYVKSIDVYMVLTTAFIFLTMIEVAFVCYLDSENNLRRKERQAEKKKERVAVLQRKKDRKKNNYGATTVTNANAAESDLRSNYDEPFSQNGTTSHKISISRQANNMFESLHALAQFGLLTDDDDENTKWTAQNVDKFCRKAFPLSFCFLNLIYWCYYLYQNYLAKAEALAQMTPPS

By EC50 is commonly meant the concentration that produces a half-maximal response. For the compound `NCCc1c[nH]c2ccc(O)cc12` [5-HT, serotonin], the 50% effective concentration (EC50) was found to be 94 µM on LGC-54 (Xenopus oocytes, TEVC, current normalized to Imax, Hill equation with variable slope, read-out: EC50, agonist-evoked dose response, LGC-54) and 0.85 µM on LGC-50:MOD-1(327-458). Moreover, at LGC-54 (ligands screened at 100 μM, oocytes clamped at −60 mV), the “Channel activation in ligand screen, LGC-54” value is “responded to 5-HT at high concentrations”.
